Measurements: PubChem BioAssay AID1963979 (Molecular Pharmacology Branch, DTP, NCI, 2024)

System: 361931-004-R-J1-PDC multicell spheroid viability
Test: Anticancer human tumor 361931-004-R-J1-PDC patient-derived colon adenocarcinoma cell line growth inhibition [PI3K]
Details: for IC50: curve of first compound; for viability, T/C: stronger effect = lower value
Excerpt: Combinatorial screen of targeted agents with the PI3K inhibitors inavolisib, alpelisib, duvelisib, and copanlisib in multi-cell type tumor spheroids
A high-throughput screen of multi-cell type tumor spheroids was designed to identify active combinations of targeted small molecules and PI3K pathway inhibitors. Complex spheroids include a stromal component modeled by human endothelial cells (HUVEC) and fibroblasts modeled by human mesenchymal stem cells (MSCs). The concentration ranges selected for each drug and investigational agent were based upon clinically achievable concentrations if the clinical Cmax of the agent was known.
Compounds. The drugs and investigational agents: inavolisib (NSC800729), alpelisib (NSC765974), duvelisib (NSC772469), copanlisib (NSC816437), ipatasertib (NSC767898), afuresertib (NSC778305), talazoparib (NSC767125), sapanisertib (NSC764658), selumetinib (NSC741078), tovorafenib (DAY101, NSC766906), vemurafenib (NSC761431), ravoxertinib (NSC781343), sotorasib (NSC818433), MRTX1133 (NSC 836407), abemaciclib (NSC 768073), palbociclib (NSC758247), venetoclax (NSC 766270), SY5609 (NSC837396), enzalutamide (NSC755605), and darolutamide (NSC825331), were obtained from the National Cancer Institute (NCI) Developmental Therapeutics Program Chemical Repository. The FDA-approved anticancer drug set is available from the NCI Developmental Therapeutics Program. […] The stock solutions were prepared in dimethyl sulfoxide (DMSO, Sigma-Aldrich, St. Louis, MO, cat. D2650) at 800-fold the tested concentration and stored at -70 degrees C prior to their use. All drugs and investigational agents were tested over a range starting from a high concentration at or near the clinical Cmax and decreasing in half-log increments. If the clinical Cmax for an agent had not been determined, the highest concentration tested was 10 microM.
Cell Culture. All cells were maintained in an incubator at 37 degrees C and 5% CO2 with 95% humidity. The PDC lines were cultured according to standard operating procedures established by the NCI PDMR (https://pdmr.cancer.gov/sops/default.htm). All PDCs were thawed and cultured in Matrigel-coated flasks prepared with a working solution of 1X Ham's F-12 nutrient mix, without supplementation (Invitrogen, Waltham, MA, cat. 11765054), 100 U/mL penicillin-streptomycin (Invitrogen, cat. 15140122), and 2.5% Matrigel (Corning Inc., Corning, NY, cat. 354248) for the first three passages. The 354836-022-R-J1-PDC, 475296-252-R-J1-PDC, and 997726-040-R-J2-PDC lines were cultured in 6A media, which includes advanced DMEM/F-12 (Thermo Fisher Scientific, cat. 12634028), 10 mM HEPES (Thermo Fisher Scientific, cat. 15630080), 1X GlutaMAX supplement (Thermo Fisher Scientific, cat. 35050061), 0.1 mg/mL primocin (InvivoGen, San Diego, CA, cat. ant-pm-2), 10% defined fetal bovine serum, heat inactivated (HyClone Laboratories Inc., Logan, UT, cat. SH30070.03HI), 50% L-WRN conditioned media (ATCC, cat. CRL-3276), 1.25 mM N-Acetyl-L-cysteine (Sigma-Aldrich, cat. A9165), 10 mM nicotinamide (Sigma-Aldrich, cat. N0636), 1X B-27 supplement (Thermo Fisher Scientific, cat. 17504044), 1X N-2 supplement (Thermo Fisher Scientific, cat. 17502048), and 10 microM Y-27632 dihydrochloride (Tocris Bioscience, Bristol, United Kingdom, cat. 1254). The 624824-186-R-J2-PDC line was cultured in 6C/Colon 1B media, which includes all 6A media components plus 50 ng/mL human EGF recombinant protein (Thermo Fisher Scientific, cat. PHG0311). […]

[1] = second compound 0.0316 µM, first compound 0.0316 µM
[2] = second compound 0.0316 µM, first compound 0.1 µM
[3] = second compound 0.1 µM, first compound 0.0316 µM
[4] = second compound 0.1 µM, first compound 0.1 µM
[5] = second compound 0.316 µM, first compound 0.0316 µM
[6] = second compound 0.316 µM, first compound 0.1 µM
[7] = second compound 1 µM, first compound 0.0316 µM
[8] = second compound 1 µM, first compound 0.1 µM
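Further: spheroids exposed to agents for seven days before readout.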

Work on `CCCS(=O)(=O)Nc1ccc(F)c(C(=O)c2c[nH]c3ncc(-c4ccc(Cl)cc4)cc23)c1F` + COc1c(OCCCN2CCOCC2)ccc2c3n(c(=NC(=O)c4cnc(N)nc4)nc12)CCN3 yielded an IC50 (second compound 0.00316 µM) of 4620 nM, an IC50 (second compound 0.01 µM) of 4730 nM and an IC50 (second compound 0.0316 µM) of 4480 nM. For the same compound, the IC50 (second compound 0.1 µM) was 1570 nM, the IC50 (second compound 0.316 µM) was 48.7 nM and the IC50 (second compound 1 µM) was less than 31.6 nM. For the same compound, the viability, T/C (second compound 0.00316 µM, first compound 0.0316 µM) was 102%, the viability, T/C (second compound 0.00316 µM, first compound 0.1 µM) was 104% and the viability, T/C (second compound 0.00316 µM, first compound 0.316 µM) was 93.7%. The viability, T/C (second compound 0.00316 µM, first compound 1 µM) was 89.8%, the viability, T/C (second compound 0.00316 µM, first compound 3.16 µM) was 72.3% and the viability, T/C (second compound 0.00316 µM, first compound 10 µM) was 7.97%. It also gave a viability, T/C (second compound 0.01 µM, first compound 0.0316 µM) of 107%, a viability, T/C (second compound 0.01 µM, first compound 0.1 µM) of 93.1% and a viability, T/C (second compound 0.01 µM, first compound 0.316 µM) of 94%. It also gave a viability, T/C (second compound 0.01 µM, first compound 1 µM) of 88.1%, a viability, T/C (second compound 0.01 µM, first compound 3.16 µM) of 75.6% and a viability, T/C (second compound 0.01 µM, first compound 10 µM) of 6.49%. It also gave a viability, T/C [1] of 93%, a viability, T/C [2] of 87.3% and a viability, T/C (second compound 0.0316 µM, first compound 0.316 µM) of 77.5%. It also gave a viability, T/C (second compound 0.0316 µM, first compound 1 µM) of 83.3%, a viability, T/C (second compound 0.0316 µM, first compound 3.16 µM) of 69.4% and a viability, T/C (second compound 0.0316 µM, first compound 10 µM) of 6.55%. The viability, T/C [3] was 89.1%, the viability, T/C [4] was 72.5% and the viability, T/C (second compound 0.1 µM, first compound 0.316 µM) was 67.4%. It also gave a viability, T/C (second compound 0.1 µM, first compound 1 µM) of 53%, a viability, T/C (second compound 0.1 µM, first compound 3.16 µM) of 47.6% and a viability, T/C (second compound 0.1 µM, first compound 10 µM) of 5.33%. The viability, T/C [5] was 54.1%, the viability, T/C [6] was 45.5% and the viability, T/C (second compound 0.316 µM, first compound 0.316 µM) was 28.9%. It also gave a viability, T/C (second compound 0.316 µM, first compound 1 µM) of 27.4%, a viability, T/C (second compound 0.316 µM, first compound 3.16 µM) of 17.8% and a viability, T/C (second compound 0.316 µM, first compound 10 µM) of 3.29%. It also gave a viability, T/C [7] of 20.6%, a viability, T/C [8] of 21.3% and a viability, T/C (second compound 1 µM, first compound 0.316 µM) of 14%. For the same compound, the viability, T/C (second compound 1 µM, first compound 1 µM) was 9.73%, the viability, T/C (second compound 1 µM, first compound 3.16 µM) was 7.59% and the viability, T/C (second compound 1 µM, first compound 10 µM) was 2.7%.
`CC(=O)c1c(C)c2cnc(Nc3ccc(N4CCNCC4)cn3)nc2n(C2CCCC2)c1=O` + CC(Nc1ncnc2nc[nH]c12)c1cc2cccc(Cl)c2c(=O)n1-c1ccccc1 gave an IC50 (second compound 0.0316 µM) greater than 100 nM, an IC50 (second compound 0.1 µM) greater than 100 nM and an IC50 (second compound 0.316 µM) greater than 100 nM. The IC50 (second compound 1 µM) was greater than 100 nM, the IC50 (second compound 3.16 µM) was greater than 100 nM and the IC50 (second compound 10 µM) was greater than 100 nM. It also gave a viability, T/C (second compound 0.0316 µM, first compound 0.000316 µM) of 98.3%, a viability, T/C (second compound 0.0316 µM, first compound 0.001 µM) of 103% and a viability, T/C (second compound 0.0316 µM, first compound 0.00316 µM) of 97.5%. For the same compound, the viability, T/C (second compound 0.0316 µM, first compound 0.01 µM) was 97.2%, the viability, T/C [1] was 102% and the viability, T/C [2] was 93.2%. For the same compound, the viability, T/C (second compound 0.1 µM, first compound 0.000316 µM) was 103%, the viability, T/C (second compound 0.1 µM, first compound 0.001 µM) was 103% and the viability, T/C (second compound 0.1 µM, first compound 0.00316 µM) was 98.4%. The viability, T/C (second compound 0.1 µM, first compound 0.01 µM) was 104%, the viability, T/C [3] was 99.5% and the viability, T/C [4] was 98.4%. The viability, T/C (second compound 0.316 µM, first compound 0.000316 µM) was 108%, the viability, T/C (second compound 0.316 µM, first compound 0.001 µM) was 97.7% and the viability, T/C (second compound 0.316 µM, first compound 0.00316 µM) was 105%. It also gave a viability, T/C (second compound 0.316 µM, first compound 0.01 µM) of 97.9%, a viability, T/C [5] of 103% and a viability, T/C [6] of 97.5%. The viability, T/C (second compound 1 µM, first compound 0.000316 µM) was 101%, the viability, T/C (second compound 1 µM, first compound 0.001 µM) was 100% and the viability, T/C (second compound 1 µM, first compound 0.00316 µM) was 101%. The viability, T/C (second compound 1 µM, first compound 0.01 µM) was 105%, the viability, T/C [7] was 108% and the viability, T/C [8] was 89%. It also gave a viability, T/C (second compound 3.16 µM, first compound 0.000316 µM) of 96.2%, a viability, T/C (second compound 3.16 µM, first compound 0.001 µM) of 100% and a viability, T/C (second compound 3.16 µM, first compound 0.00316 µM) of 97.2%. For the same compound, the viability, T/C (second compound 3.16 µM, first compound 0.01 µM) was 93.7%, the viability, T/C (second compound 3.16 µM, first compound 0.0316 µM) was 100% and the viability, T/C (second compound 3.16 µM, first compound 0.1 µM) was 81.3%. For the same compound, the viability, T/C (second compound 10 µM, first compound 0.000316 µM) was 92.7%, the viability, T/C (second compound 10 µM, first compound 0.001 µM) was 107% and the viability, T/C (second compound 10 µM, first compound 0.00316 µM) was 96.5%. The viability, T/C (second compound 10 µM, first compound 0.01 µM) was 94.1%, the viability, T/C (second compound 10 µM, first compound 0.0316 µM) was 101% and the viability, T/C (second compound 10 µM, first compound 0.1 µM) was 80.5%.
